Source: article PMC4349456, “Automated genomic context analysis and experimental validation platform for discovery of prokaryote transcriptional regulator functions” (BMC Genomics, 2014)

Each compound was assayed against T1, Bxe_B3018 (MgxR) (assay: fluorescence anisotropy, collapse of complex with fluorescein-labelled DNA operator). Details: apparent, from loss of DNA operator binding; 250 nM GST-Bxe_B3018, 1 nM DOS; pH 7.5, 30 °C, 1 mM MgCl2, 1 mM DTT.
T1 construct: GST-tagged (N-terminal, pGEX-KG / pGEX-T2), tag kept; expressed in Arctic Express cells; GSTrap and Superdex 200 purified
Parameters: species or system Paraburkholderia xenovorans

| Kd [µM] | SMILES |
| --- | --- |
| 2600 ± 200 | CC(=O)CN(C)C [N,N-dimethylaminoacetone] |
| 2100 ± 200 | CC(=O)C=O [Mgx, methylglyoxal] |
| 2100 ± 400 | CC(=O)CN [Aa, aminoacetone] |
